Results as given in patent publication US8617819B2, “Polymers for analyte detection” (Massachusetts Institute of Technology, priority 2004, dated 2013).

Tests used:
[1] = Stern-Volmer quenching of polymer 1 by streptavidin-free dyes; assay type: binding; details: free dye added to polymer 1, 50 mM Tris buffer pH 7.4
Method: This mechanism generally requires fairly close proximity between the donor and acceptor chromophores. To study these interactions, the Stern-Volmer (KSV) quenching constants were determined from fluorescence emission and lifetime measurements in 50 mM Tris buffer at pH 7.4. Upon the addition of the streptavidin-free fluorescent dyes (fluorescein, RhB, and sulforhodamine 101, the Texas Red™ parent dye) to polymer 1, the apparent KSV values were determined to be 26,300 M^−1, 91,800 M^−1 and 97,900 M^−1, respectively. […] The dyes therefore may have an inherent affinity for the conjugated polymer backbone. A more planar conformation and greater hydrophobic character for Texas Red™, compared to RhB and fluorescein, may permit better stacking and orbital interaction with the CP backbone, allowing for greater DET. In the case of dye-labeled streptavidin, biological recognition first may bring the dyes into closer proximity with the polymer. Conformational and hydrophobic characteristics of the dyes then may tailor the extent of orbital mixing with the polymer: the flatter Texas Red™ may interact more intimately with the planar conjugated polymer backbone then the other dyes. This may favor DET and can explain the better ET that was observed, even at decreased spectral overlap between the CP donor and dye acceptor.

[2] = thin film (solid phase) energy transfer / dye association assay; assay type: binding; details: for association of free dye with polymer thin films: polymers 3 and 4, thin films
Method: Thin film experiments with polymers 3 and 4 were also conducted in this example. Incubation with the dye-labeled streptavidin was performed in the presence of Triton X-100, a non-ionic detergent, to diminish non-specific binding. […] The spectra was scaled to 454 nm.
To perform energy transfer assays in solid phase, the following general protocol was used. The microscope coverslips were pretreated in 1,1,1,3,3,3-hexamethyldisilazane. The polymer solutions at 1 mg/ml in chloroform were spin-cast onto microscope coverslips at a spin rate of 3000 rpm for 1 minute. The coverslips were put under vacuum for 2 h, then were incubated in a solution of dye labeled streptavidin or dye for 1 h. The coverslips were then washed with deionized water, blotted dry and dried under vacuum for a minimum of 5 h. The excitation wavelength at 400 nm was chosen, and the emission spectrum was taken from 415 nm-700 nm.

sheep erythrocytes = test: hemagglutination inhibition of sheep erythrocytes; assay type: cell-based
[3] = tested on: mannose binding (wild type) E. coli strain; test: fluorescent staining / clustering of mannose binding (wild type) E. coli; assay type: cell-based; details: 30 minutes, OD600 1.0, washed twice with PBS
Method: (§1) Two bacterial strains that differed only in their mannose binding properties were used to assess whether the mannosylated PPE 22a could fluorescently stain E. coli. In addition to a strain that binds to mannose, a second strain that is mutated in its mannose binding protein (FimH) to abolish mannose binding was used. The non-functionalized polymer 21, the mannosylated polymer 22a, and 2′-fluorescein aminoethyl mannoside were individually incubated with these bacterial strains. After incubating a 1 ml bacterial suspension at an OD600 of 1.0 with the appropriate polymer or dye labeled mannose for 30 minutes, the suspensions were centrifuged to pellet the cells. The supernatant solution containing unbound polymer or dye labeled mannose was discarded and the cells were washed twice with phosphate buffered saline (PBS, pH 7.2). The bacteria were then resuspended in PBS. […]
(§2) Binding of mannosylated polymer to bacteria was imaged using laser scanning confocal microscopy and fluorescence microscopy. […]
(§3) FIGS. 8A-8B illustrate laser scanning confocal microscopy images. […] FIG. 8D is a conventional fluorescence spectra of polymer 22a in PBS (solid line) and normalized fluorescence spectra of a bacterial cluster obtained using confocal microscopy (dotted line).

[4] = tested on: E. coli strain mutated in its mannose binding protein (FimH); test: fluorescent staining / clustering of FimH mutant (non-mannose binding) E. coli; assay type: cell-based; details: 30 minutes, OD600 1.0, washed twice with PBS
Method: as §1, §2, §3

Row | Molecule | apparent Stern-Volmer quenching constant KSV [1] | association of free dye with polymer thin films [2] | INHIBITING DOSE (sheep erythrocytes) | other results
1 | O=S(=O)([O-])c1cc(S(=O)(=O)O)ccc1C1=c2cc3c4c(c2Oc2c1cc1c5c2CCCN5CCC1)CCC[N+]=4CCC3 [sulforhodamine 101] | 97,900 M^−1 | associated with neither | – | –
2 | NCCOC1O[C@H](CO)[C@@H](O)[C@H](O)[C@@H]1O (stereo partly drawn) [2′-Aminoethyl mannoside] | – | – | 0.01 M | –
3 | CCN(CC)c1ccc2c(-c3ccccc3C(=O)O)c3ccc(=[N+](CC)CC)cc-3oc2c1.[Cl-] [RhB, rhodamine B] | 91,800 M^−1 | associated with both 3 and 4 | – | –
4 | 2′-Fluorescein aminoethyl mannoside | – | – | 0.01 M | binding / fluorescent labelling of E. coli after incubation, pelleting and washing [3]: Neither polymer 21 nor the 2′-fluorescein aminoethyl mannoside appeared to bind either E. coli strain; binding / fluorescent labelling of E. coli after incubation, pelleting and washing [4]: Neither polymer 21 nor the 2′-fluorescein aminoethyl mannoside appeared to bind either E. coli strain
5 | RhB-strept: rhodamine B-labeled streptavidin, about 4.6 dyes/protein | – | – | – | thin film ET of dye-labeled streptavidin ([2]; polymers 3 and 4, in the presence of Triton X-100): exhibited better ET than T-red-strept
